What all share (experiment): DTP human tumour cell line panel, 48 h
Assay [1] deals with UACC-62 melanoma.
Assay [2] concerns ACHN renal.
Assay [3] deals with OVCAR-5 ovarian.
The subject of assay [4] is OVCAR-4 ovarian.
In assay [5] the test system is SK-OV-3 ovarian.
Assay [6] concerns UACC-257 melanoma.
The subject of assay [7] is K-562 leukemia.
The subject of assay [8] is M14 melanoma.
Assay [9] has as its system CCRF-CEM leukemia.
Assay [10] has as its system TK-10 renal.

The TGI is the concentration at which net growth stops. What is called GI50 is the concentration that inhibits growth by half.

Structures are written as SMILES.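 The compound was tested at five concentrations on cells cultured in 96-well plates, with a 48-hour exposure period. Here, GI50 denotes the concentration required for 50% inhibition of growth. TGI is the concentration that stops growth completely.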

For the compound `O=C(O)c1ccc(CI)cc1`, the TGI in assay [1] worked out at 26.4 µM; in assay [2] it was 30.1 µM; in assay [3] it was 34.5 µM; in assay [4], 27.4 µM; in assay [5] it was 55 µM; in [6], 38.9 µM. Besides, the values for the TGI in [7], in [8] and in [9] were 74.6 µM, 41.3 µM and 26.9 µM, respectively.

As to `C=CCn1c(C)nc2ccc(Nc3nc(Nc4ccc(F)cc4)nc4ccccc34)cc21`, the GI50 in assay [1] was 1.8 µM; in [2], 1.99 µM; in assay [3], 11.6 µM; in assay [4] it was 2.06 µM; in assay [10], 6.83 µM; in assay [6], 13.1 µM. For the same compound, the GI50 in assay [7] was 3.13 µM; in assay [8], 3.26 µM; in assay [9] it was 3.01 µM. Also, the total growth inhibition concentration (TGI) turned out to be 3.7 µM in assay [1]; 4.31 µM in assay [2]; 26.6 µM in assay [3]; 5.81 µM in [4]; 24.6 µM in assay [10]; 29.9 µM in [6]. Moreover, the values for the TGI in assay [7], in [8] and in assay [9] were 11.9 µM, 14.2 µM and 11.7 µM, respectively.

Consider `COc1ccc(NC(=O)CC2SC(=Nc3ccccc3C)NC2=O)c([N+](=O)[O-])c1` (configuration not stated), for which the concentration for total growth inhibition (TGI) in assay [1], in assay [2], in assay [3], in assay [4], in assay [10] and in [5] was more than 100 µM throughout. The total growth inhibition concentration (TGI) in [6], in assay [7] and in assay [8] was more than 100 µM each time.

For the compound `O=S(=O)(NCCNc1nccc(-c2c(-c3ccc(F)c(O)c3)nc3sccn23)n1)c1ccc(F)cc1`, the GI50 in assay [1] is 0.587 µM; in assay [2], 2.58 µM; in assay [3], 4.37 µM; in assay [4] it was 3.9 µM; in assay [10], 16.2 µM; in [5] it was 4.28 µM. The GI50 in assay [6] is 1.71 µM; in assay [7], 2.55 µM; in assay [8] it was 0.364 µM. Also, the total growth inhibition concentration (TGI) in assay [1] came out at 9.82 µM; in [2], 28.5 µM; in [3], 85.7 µM; in [4], 14.7 µM; in assay [10], 96.7 µM; in assay [5], 75.7 µM. Further, the TGI in assay [6] was 18.3 µM; in assay [7], more than 100 µM; in assay [8], 16.5 µM.

As for `O=c1c2cc(F)ccc2sc2c(N3CCNCC3)nc3ccc(F)cc3c12`, the GI50 is 1.74 µM in [1]; 1.48 µM in assay [2]; 1.66 µM in assay [3]; 1.83 µM in assay [4]; 1.94 µM in assay [10]; 1.88 µM in assay [6]. Besides, the GI50 in [8] was 1.94 µM; in assay [9], 2.06 µM. Besides, the TGI was 3.19 µM in assay [1]; 2.8 µM in [2]; 3.07 µM in assay [3]; 3.48 µM in assay [4]; 3.47 µM in assay [10]; 3.7 µM in assay [6]. For the same compound, the TGI in assay [8] was determined as 3.66 µM; in [9], 5.24 µM.

As for `C=CCNc1nc2c(s1)C(=O)c1ccccc1C2=O`, the TGI was found to be 9.37 µM in assay [1]; 20.2 µM in assay [2]; 37.5 µM in assay [3]; 26.4 µM in assay [4]; 34.2 µM in assay [10]; 31.7 µM in [5]. In addition, the TGI amounted to 7.2 µM in assay [6], 35.8 µM in assay [7] and 16.7 µM in [8].

As for `O=C1CC2C(=O)c3ccccc3CC2c2ccccc21` (configuration not stated), the concentration for total growth inhibition (TGI) in [1], in assay [2], in [3], in [4], in assay [10] and in assay [5] was more than 100 µM in each case. Besides, the figures for the TGI in assay [6], in assay [7] and in [8] were 75.2 µM, more than 100 µM and more than 100 µM, respectively.

For the compound `COC12CCC(=O)C=C1c1ccccc1N2C(C)=O` (configuration not stated), the TGI in [1], in assay [2], in [4], in [5], in assay [6] and in assay [7] was more than 100 µM in each case. In [9], this compound displayed a TGI of more than 100 µM.

As to `CCOC(=O)c1cc2cc3c4c(c2oc1=O)CCCN4CCC3`, the total growth inhibition concentration (TGI) in assay [2], in assay [3], in [4], in assay [10], in assay [6] and in assay [7] was more than 100 µM each time. Moreover, the TGI in assay [8] and in assay [9] was more than 100 µM each time.

Turning to `CCOC(=O)C1=C(Nc2ccc(Cl)cc2Cl)OCC1=O`, the TGI in [1], in assay [2], in [3], in assay [4], in [10] and in assay [5] was more than 100 µM throughout. The TGI in assay [6], in assay [7] and in assay [8] was more than 100 µM throughout.

For `COC(=O)C1C(O)CCC2CN3CCc4c([nH]c5ccccc45)C3CC21` (configuration not stated), the total growth inhibition concentration (TGI) in [1], in assay [2], in assay [3], in assay [4], in assay [10] and in assay [5] was more than 100 µM throughout. Also, the TGI in [6], in assay [7] and in assay [8] was more than 100 µM each time. Besides, the GI50 in assay [2] and in [4] was more than 100 µM each time.

For `Cc1ccccc1NC(=O)c1cc(-c2ccc([N+](=O)[O-])cc2)nc(=S)[nH]1`, the TGI in assay [1], in [2], in assay [3], in assay [4], in assay [10] and in assay [5] was more than 100 µM each time. The TGI in assay [6], in assay [7] and in assay [8] was more than 100 µM in each case.

These data come from PubChem BioAssay (NCI).
